In patent US20180118756A1, “COMPOSITIONS AND METHODS OF MODULATING SHORT-CHAIN DEHYDROGENASE ACTIVITY” (CASE WESTERN RESERVE UNIVERSITY, priority 2015, published 2018):
In brackets after ≈: the same amount, converted by molar mass. Like-named read-outs stand apart in the source and are kept apart here.

What was measured:
[1] = aqueous solubility in pH 7 or pH 4 citrate buffer solution; type: physicochemical
recombinant 15-PGDH = target: T1, recombinant 15-PGDH (Homo sapiens, UniProt P15428); assay: IC50 for inhibiting enzymatic activity of recombinant 15-PGDH in an in vitro assay; type: biochemical; details: recombinant human 15-PGDH at 5 nM, in vitro
T1 sequence (P15428 1-266): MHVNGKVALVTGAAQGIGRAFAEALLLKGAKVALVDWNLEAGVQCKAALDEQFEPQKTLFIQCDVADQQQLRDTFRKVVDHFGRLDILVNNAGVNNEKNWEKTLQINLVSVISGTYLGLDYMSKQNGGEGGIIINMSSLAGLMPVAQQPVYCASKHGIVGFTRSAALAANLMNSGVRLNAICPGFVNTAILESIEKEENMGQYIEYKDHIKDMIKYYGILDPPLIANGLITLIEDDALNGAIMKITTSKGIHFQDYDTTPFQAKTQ

[2] = citrate buffer solution, pH 4, aqueous buffer, pH 4 citrate buffer solution, read-out: pH 4 solubility
[3] = citrate buffer solution, pH 7, aqueous buffer, pH 7 citrate buffer solution, read-out: pH 7 solubility
[4] = read-out: Enzyme Inhibitor IC50 (nM) at 5 nM 15-PGDH
[5] = Enzyme Inhibitor IC50 (nM) at 5 nM 15-PGDH

SMILES | solubility [1, 2] [µg/mL] | solubility [1, 3] [µg/mL] | also measured
CCCC[S+]([O-])c1sc2nc(-c3nccs3)cc(-c3cnc(C)n3C)c2c1N (single isomer, unassigned; (+)) [(+)-(R)- SW 209415] | – | – | pH 7 solubility (μg/mL) ([1]; pH 7 citrate buffer solution): 2 μg/mL
CCCC[S+]([O-])c1sc2nc(-c3nccs3)ccc2c1N (stereo not drawn) [SW 206992] | – | 4.76 (≈ 14.1 µM) | –
CCCC[S+]([O-])c1sc2nc(-c3cccs3)cc(C)c2c1N (stereo not drawn) [SW 208488] | – | 2.6 (≈ 7.42 µM) | –
CCCC[S+]([O-])c1sc2nc(-c3ncco3)cc(-c3ccccc3)c2c1N (stereo not drawn) [SW 208496] | – | 2.2 (≈ 5.53 µM) | –
CC(C)[S+]([O-])c1sc2nc(-c3ncco3)cc(-c3ccccc3)c2c1N (stereo not drawn) [SW 208660] | – | 11.6 (≈ 30.2 µM) | IC50 (recombinant 15-PGDH; [4]): 2.86 nM
CC(C)[S+]([O-])c1sc2nc(-c3nccs3)cc(-c3ccccc3)c2c1N (stereo not drawn) [SW 208780] | – | 0.65 (≈ 1.63 µM) | IC50 (recombinant 15-PGDH; [4]): 5.55 nM
CCCC[S+]([O-])c1sc2nc(-c3nccs3)cc(-c3nccn3C)c2c1N (stereo not drawn) [SW 209125] | 31.6 (≈ 75.7 µM) | – | –
CCCC[S+]([O-])c1sc2nc(-c3nccs3)cc(-c3ccc(OCCO)cc3)c2c1N (stereo not drawn) [SW 211688] | 1180 (≈ 2490 µM) | 115 (≈ 243 µM) | –
CCCC[S+]([O-])c1sc2nc(-c3nccs3)cc(-c3ccc(COC(=O)NCCCl)cc3)c2c1N (stereo not drawn) [SW 213064, 4-(3-amino-2-(butylsulfinyl)-6-(thiazol-2-yl)thieno[2,3-b]pyridin-4-yl)benzyl (2-chloroethyl)carbamate] | – | – | IC50 (recombinant 15-PGDH; [5]): 5.9 nM; solubility ([1]; aqueous buffer, pH 7 citrate buffer solution, read-out: pH 7 solubility): 8.27 µg/mL (≈ 15.1 µM)
COCC[S+]([O-])c1sc2nc(-c3nccs3)cc(-c3nccs3)c2c1N (stereo not drawn) [SW 213156] | – | 3.8 (≈ 8.99 µM) | IC50 (recombinant 15-PGDH; [5]): 5.7 nM
CCCC[S+]([O-])c1sc2nc(-c3nccs3)cc(-c3cncn3C)c2c1N (stereo not drawn) [SW 217781, 2-(butylsulfinyl)-4-(1-methyl-1H-imidazol-5-yl)-6-(thiazol-2-yl)thieno[2,3-b]pyridin-3-amine] | 71.8 (≈ 172 µM) | 14 (≈ 33.5 µM) | IC50 (recombinant 15-PGDH; [5]): 1.9 nM
CCCC[S+]([O-])c1sc2nc(-c3nccs3)cc(-c3ccc(OCCOC(=O)CCC(=O)O)cc3)c2c1N (stereo not drawn) [SW 217999, 4-(2-(4-(3-amino-2-(butylsulfinyl)-6-(thiazol-2-yl)thieno[2,3-b]pyridin-4-yl)phenoxy)ethoxy)-4-oxobutanoic acid] | – | 747 (≈ 1300 µM) | IC50 (recombinant 15-PGDH; [5]): 6.2 nM

Second part, led by results:

solubility [1, 2] [µg/mL] | solubility [1, 3] [µg/mL] | SMILES | also measured
164 (≈ 358 µM) | 4 (≈ 8.74 µM) | CCCC[S+]([O-])c1sc2nc(-c3nccs3)cc(-c3cnc(C4CC4)n3C)c2c1N (single isomer, unassigned) [SW 212345] | –
– | 9.7 (≈ 28.7 µM) | Cc1cc(-c2nccs2)nc2sc([S+]([O-])C(C)C)c(N)c12 (stereo not drawn) [SW 208664] | IC50 (recombinant 15-PGDH; [4]): 7.62 nM
3.8 (≈ 9.17 µM) | 3.4 (≈ 8.2 µM) | CCCC[S+]([O-])c1sc2nc(-c3nccs3)cc(-c3cccnc3)c2c1N (stereo not drawn) [SW 208777] | –
26 (≈ 64.9 µM) | 9.9 (≈ 24.7 µM) | CC(C)[S+]([O-])c1sc2nc(-c3nccs3)cc(-c3cccnc3)c2c1N (stereo not drawn) [SW 208778] | –
73 (≈ 181 µM) | 37.7 (≈ 93.4 µM) | CC(C)[S+]([O-])c1sc2nc(-c3nccs3)cc(-c3nccn3C)c2c1N (stereo not drawn) [SW 209279] | –
88 (≈ 218 µM) | 17 (≈ 42.1 µM) | CCC[S+]([O-])c1sc2nc(-c3nccs3)cc(-c3nccn3C)c2c1N (stereo not drawn) [SW 209280] | –
241 (≈ 558 µM) | 54.3 (≈ 126 µM) | CCCC[S+]([O-])c1sc2nc(-c3nccs3)cc(-c3cnc(C)n3C)c2c1N (stereo not drawn) [SW 209415, 2-(butylsulfinyl)-4-(1,2-dimethyl-1H-imidazol-5-yl)-6-(thiazol-2-yl)thieno[2,3-b]pyridin-3-amine] | –
– | 5.9 (≈ 13.3 µM) | CCCC[S+]([O-])c1sc2nc(-c3nccs3)cc(-c3cccc(CO)c3)c2c1N (stereo not drawn) [SW 209418] | –
– | 7.4 (≈ 16.2 µM) | CCCC[S+]([O-])c1sc2nc(-c3nccs3)cc(-c3ccc(C(C)O)cc3)c2c1N (stereo not drawn) [SW 217778, 1-(4-(3-amino-2-(butylsulfinyl)-6-(thiazol-2-yl)thieno[2,3-b]pyridin-4-yl)phenyl)ethan-1-ol] | IC50 (recombinant 15-PGDH; [5]): 2.2 nM
597 (≈ 1340 µM) | 30.5 (≈ 68.4 µM) | CCCC[S+]([O-])c1sc2nc(-c3nc(C)cs3)cc(-c3cnc(C)n3C)c2c1N (stereo not drawn) [SW 217779, 2-(butylsulfinyl)-4-(1,2-dimethyl-1H-imidazol-5-yl)-6-(4-methylthiazol-2-yl)thieno[2,3-b]pyridin-3-amine] | –
